Earlier results as cited in patent US20240238336A1, “COPPER NANOCLUSTERS, METHODS FOR OBTAINING SAME AND THE USE THEREOF IN THE TREATMENT OF MENKES DISEASE” (priority 2021, published 2024).

Tested on: Menkes syndrome
Conditions: child; daily subcutaneous injections for two and a half years

## N[C@@H](Cc1c[nH]cn1)C(=O)O.[Cu] [copper histidine]
  development: continued to manifest severe developmental delays
  epilepsy crises: epilepsy crises were eliminated
  pigmentation of skin and hair: improved pigmentation of the skin and hair
